# In paper PMC11892739, “Site-specific molecular glues for the 14-3-3/Tau pS214 protein–protein interaction via reversible covalent imine tethering” (RSC Medicinal Chemistry, 2025):
# Square brackets hold non-standard residues; d marks the D form. Peptide text beside a SMILES is read from it. pS = N[C@@H](COP(=O)(O)O)C(=O)O
# Target: T1, 14-3-3ζ/Tau pS2 peptide interaction (Homo sapiens, UniProt P63104)
# T1 construct: made in house; host or cells: NiCo21 (DE3) E. coli
# T1 sequence (P63104 1-245): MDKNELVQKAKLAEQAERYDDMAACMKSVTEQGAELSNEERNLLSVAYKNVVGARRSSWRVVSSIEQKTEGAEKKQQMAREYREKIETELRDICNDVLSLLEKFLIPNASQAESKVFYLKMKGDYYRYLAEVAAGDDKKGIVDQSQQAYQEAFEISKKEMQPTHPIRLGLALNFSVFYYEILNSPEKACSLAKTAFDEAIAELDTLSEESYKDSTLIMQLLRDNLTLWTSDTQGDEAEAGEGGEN
# Assay: Fluorescence anisotropy compound titration to preformed 14-3-3ζ/Tau pS2 peptide complex
# Assay type: binding
# Conditions: FA
# Description: With the compound library constructed, we sought to screen the stabilizing activity of the imidazole analogs for the 14-3-3ζ/Tau pS2 peptide interaction. In this regard, a fluorescence anisotropy (FA) assay was performed where each individual compound was titrated against a fixed concentration of 14-3-3ζ (100 nM) and fluorescein-labelled Tau pS2 peptide (10 nM; Fig. 3a and b, ESI ^† Fig. S4 and S5, Table 1, ESI ^† Table S1). Thereby, the fixed 14-3-3ζ concentration was based on the EC20 value of the binary complex formation to enable a sufficient dynamic window for ternary complex formation. […] For each compound dose–response curve, the background signal (titration without 14-3-3ζ) was subtracted, to exclude possible false positive results. […]
# chromatography (HisTrap high performance cartridges, Cytiva). […] Dialyzed protein was concentrated to ∼40 mg/mL, analyzed by Q -Tof LC/MS, and aliquots were flash -frozen for storage at −80 °C. […] Fractions containing the 14 -3-3 protein were pooled and concentrated to ∼60 mg/mL, analyzed Q -Tof LC/MS, and aliquots were flash -frozen for storage at −80°C.
# (§1) Fluorescence Anisotropy – compound titration
# Compound titration assays were performed by titrating compounds (in 1% DMSO, starting at 500 μM) in a 2-fold dilution series to preformed complex of fluorescein -labeled Tau pS2 (10 nM) and 14 -3-3ζ (100 nM) (which represents approximately 20% bound Tau pS2 peptide to 14 -3-3ζ to allow further complex formation by addition of fragments 1) in FA buffer (10 mM HEPES pH 7.4, 150 mM NaCl, 50 µM TCEP, 0.1% (v/v) Tween20, 0.1% (w/v) BSA). […] Measurements were performed directly after plate preparation, using a Tecan SPARK plate reader at room temperature ( λex: 485±20 nm; λem: 535±25 nm; mirror: automatic; flashes: 30; settle time: 1 ms; gain: optimal; Z -position: calculated from well). […] All data were analyzed using GraphPad Prism (10.0.1) and fitted with a four -parameter logistic model (4PL) to determine binding affinities (dissociation constant, KD). […]
row,SMILES,PPI stabilizing activity (in words)
1,O=Cc1ccc(-n2ccnc2-c2cccc(O)c2)cc1Br [Compound 9],slightly inhibited 14-3-3ζ/Tau pS2 peptide complex formation
2,CC(C)c1ccc(-c2nccn2-c2ccc(C=O)c(Br)c2)cc1 [Compound 19],completely diminished PPI stabilization
3,O=Cc1ccc(-n2ccnc2-c2ccc(OCCO)cc2)cc1Br [Compound 24],did not show an improvement in PPI stabilization

# Target: T1, 14-3-3ζ/Tau pS2 peptide interaction
# Assay: Fluorescence anisotropy 14-3-3ζ titration in the presence of 250 μM compound and Tau pS2 peptide
# Assay type: binding
# Conditions: 250 μM compound; apparent KD compared to internal DMSO reference
# Description: On the other hand, the PPI stabilizing potency of series 1 compounds was highly dependent on the position and chemical property of the substituent. […] The compound screen for these compounds was further complemented by 14-3-3ζ titration assays in the presence of a constant concentration of compound (250 μM) and Tau pS2 peptide (10 nM) (Fig. 3c, ESI ^† Fig. S6).
# This statement is strengthened by the diminished stabilizing activity when shifting the more polar chloro substituent from the para (14) to the ortho (5) to the meta position (8), respectively. […]
# chromatography (HisTrap high performance cartridges, Cytiva). Typically two 5 mL columns were used for a 2 L culture in which the lysate was loaded on the column, washed with 10 CV wash buffer (50 mM Hepes, pH 8.0, 300 mM NaCl, 25 mM imidazole, 2 mM βME), and eluted with several fractions (2-4 CV) of elution buffer (50 mM Hepes, pH 8.0, 300 mM NaCl, 250 mM imidazole, 2 mM βME). Fractions containing the 14-3-3 protein were combined and dialyzed into 25 mM HEPES pH 8.0, 200 mM NaCl, 10 mM MgCl2, 2 mM βME, followed by dialysis into 25 mM HEPES, 100 mM NaCl, 10 mM MgCl2, 500 μM TCEP (adjusted to pH 8.0). Dialyzed protein was concentrated to ∼40 mg/mL, analyzed by Q -Tof LC/MS, and aliquots were flash -frozen for storage at −80 °C. For 14 -3-3σ∆c, 1 mg TEV per 100 mg purified protein was added to the dialysis to remove the purification tag. The cleaved sample was then again loaded on a 10 mL Ni-NTA column to separate the cleaved product from the expression tag and residual uncleaved protein. The flowthrough was loade d on a Superdex 75 pg 16/60 size exclusion column (GE Life Sciences) using 25 mM HEPES, 100 mM NaCl, 10 mM MgCl2, 500 μM TCEP (adjusted to pH = 8.0) as running buffer. Fractions containing the 14 -3-3 protein were pooled and concentrated to ∼60 mg/mL, analyzed Q -Tof LC/MS, and aliquots were flash -frozen for storage at −80°C.
# as §1
# Compound titration assays were performed by titrating compounds (in 1% DMSO, starting at 500 μM) in a 2-fold dilution series to preformed complex of fluorescein -labeled Tau pS2 (10 nM) and 14 -3-3ζ (100 nM) (which represents approximately 20% bound Tau pS2 peptide to 14 -3-3ζ to allow further complex formation by addition of fragments 1) in FA buffer (10 mM HEPES pH 7.4, 150 mM NaCl, 50 µM TCEP, 0.1% (v/v) Tween20, 0.1% (w/v) BSA). Dilution series were made in polystyrene low -volume 384 -well plates (Corning #4514, Black Round Bottom). Measurements were performed directly after plate preparation, using a Tecan SPARK plate reader at room temperature ( λex: 485±20 nm; λem: 535±25 nm; mirror: automatic; flashes: 30; settle time: 1 ms; gain: optimal; Z -position: calculated from well). Wells containing only fluorescein labelled peptide were used to set as G -factor calibrated from these wells. All data were analyzed using GraphPad Prism (10.0.1) and fitted with a four -parameter logistic model (4PL) to determine binding affinities (dissociation constant, KD). All data shown is background corrected for the signal without 14 -3-3ζ and the mean and standard deviation of technical duplicate is plotted, assay performed in a scientific duplicate for hit compounds.
# Fluorescence Anisotropy – 14-3-3 titrations in the presence of compound To characterize the affinity of the Tau peptides for 14-3-3 in the presence of compound, 14-3-3ζ or γ was titrated in a 2-fold dilution series starting at 400 (for the 14-3-3ζ titrations to Tau pS2) or 800 (for the 14-3-3γ titrations to Tau pS214 or pS324) µM. 14-3-3 was added to 10 nM of fluorescein-labeled peptide (Tau pS2, Tau pS214 or Tau pS324) in the presence of 250 µM compound (1% DMSO). The assays were performed in a similar way as described above. Data shown is the average and standard deviation of a technical duplicate, top plateau corrected where needed, assay performed in a scientific duplicate.
# Fluorescence Anisotropy – peptide screen […]
row,SMILES,SF250μM (stabilization factor)
1,O=Cc1ccc(-n2c(-c3cccnc3)nc3ccccc32)cc1Br [Compound 2],20
2,O=Cc1ccc(-n2ccnc2-c2ccc(N3CCOCC3)cc2)cc1Br [Compound 23],16
3,COc1ccc(-c2nc3ccccc3n2-c2ccc(C=O)c(Br)c2)cc1 [Compound 29],8.3
4,O=Cc1ccc(-n2c(-c3ccc(OCCO)cc3)nc3ccccc32)cc1Br [Compound 31],19

# Next, values leading:
row,SF250μM (stabilization factor),SMILES
1,11,Cc1ccccc1-c1nccn1-c1ccc(C=O)c(Br)c1 [Compound 3]
2,7.5,O=Cc1ccc(-n2ccnc2-c2ccccc2Cl)cc1Br [Compound 5]
3,15,O=Cc1ccc(-n2ccnc2-c2ccccc2)cc1Cl [Compound 25]
4,1.8,O=Cc1ccc(-n2ccnc2-c2ccccc2)cc1I [Compound 26]
5,6.1,O=Cc1ccc(-n2ccnc2-c2ccccc2)cc1C(F)(F)F [Compound 27]
6,4.3,O=Cc1ccc(-n2ccnc2-c2cccc3cccnc23)cc1Br [Compound 33]

# Same assay, conditions: screening hits
row,SMILES,stabilization of the 14-3-3ζ/Tau pS2 peptide complex
1,O=Cc1ccc(-n2c(-c3cccnc3)nc3ccccc32)cc1Br [Compound 2],20 fold

# Target: 14-3-3ζ
# Assay: not given
# Parameters: method as in doi:10.1101/2024.03.15.585148
# Conditions: FA assay; read-out: KD of monovalent Tau peptide to 14-3-3ζ; cited from earlier work
row,SMILES,Kd
1,CC(=O)N[C@@H](CO)C(=O)N[C@@H](CCCNC(=N)N)C(=O)N[C@H](C(=O)N1CCC[C@H]1C(=O)N[C@@H](COP(=O)(O)O)C(=O)N[C@@H](CC(C)C)C(=O)N1CCC[C@H]1C(=O)N[C@H](C(=O)N1CCC[C@H]1C(=O)N1CCC[C@H]1C(=O)N[C@H](C(=O)N[C@@H](CCCNC(=N)N)C(=O)N[C@@H](CCC(=O)O)C(=O)O)[C@@H](C)O)[C@@H](C)O)[C@@H](C)O [Tau pS214] (Ac-SRTP[pS]LPTPPTRE-OH; C-terminus assumed),> 100 µM
2,CC[C@H](C)[C@H](NC(=O)[C@H](CC(N)=O)NC(=O)CNC(=O)[C@H](CC(C)C)NC(=O)[C@H](COP(=O)(O)O)NC(=O)CNC(=O)[C@H](CS)NC(=O)[C@H](CCCCN)NC(=O)[C@H](CO)NC(=O)[C@@H](NC(=O)[C@@H](NC(C)=O)C(C)C)[C@@H](C)O)C(=O)N[C@@H](Cc1c[nH]cn1)C(=O)N[C@@H](Cc1c[nH]cn1)C(=O)N[C@@H](CCCCN)C(=O)O [Tau pS324] (Ac-VTSKCG[pS]LGNIHHK-OH; C-terminus assumed),> 100 µM
